Results taken from US7241799B2, “Cannabimimetic indole derivatives” (University of Connecticut, priority 1999, dated 2007).
Like-named read-outs stand apart in the source and are kept apart here.

Tests used:
CB1 receptor = target: T1, CB1 receptor (Rattus norvegicus, UniProt P20272); assay: CB1 receptor binding, [3H] CP-55,940 displacement, rat forebrain membranes; settings: for Ki: rat forebrain membranes, 0.8 nM [3H] CP-55,940, read-out: Kl CB1; for selectivity for the CB1 receptor: binding selectivity CB1 versus CB2, from the results in the TABLES
T1 construct: membranes were prepared from rat forebrain membranes; from tissue; host or cells: rat forebrain
T1 sequence (P20272 whole entry): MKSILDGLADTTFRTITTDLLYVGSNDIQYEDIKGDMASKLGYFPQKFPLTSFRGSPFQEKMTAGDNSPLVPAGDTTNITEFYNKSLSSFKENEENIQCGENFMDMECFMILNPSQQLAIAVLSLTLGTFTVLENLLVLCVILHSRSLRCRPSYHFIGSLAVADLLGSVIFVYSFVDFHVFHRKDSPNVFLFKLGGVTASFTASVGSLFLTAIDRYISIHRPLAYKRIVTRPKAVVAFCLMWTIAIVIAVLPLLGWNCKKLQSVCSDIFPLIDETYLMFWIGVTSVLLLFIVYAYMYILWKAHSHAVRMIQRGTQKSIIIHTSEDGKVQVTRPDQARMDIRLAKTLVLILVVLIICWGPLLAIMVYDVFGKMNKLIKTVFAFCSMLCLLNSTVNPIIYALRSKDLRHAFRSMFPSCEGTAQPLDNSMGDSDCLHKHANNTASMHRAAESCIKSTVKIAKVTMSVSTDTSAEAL
Procedure: (§1) The materials were tested for CB2 receptor binding affinity and for CB1 receptor affinity (to determine selectivity for the CB2 receptor). As used herein, “binding affinity” is represented by the IC50 value which is the concentration of an analog required to occupy the 50% of the total number (Bmax) of the receptors. The lower the IC50 value the higher the binding affinity.
For the CB1 receptor binding studies, membranes were prepared from rat forebrain membranes according to the procedure of P. R. Dodd et al, A Rapid Method for Preparing Synaptosomes: Comparison with Alternative Procedures, Brain Res., 107–118 (1981). The binding of the novel analogues to the CB1 cannabinoid receptor was assessed as described in W. A. Devane et al, Determination and Characterization of a Cannabinoid Receptor in a Rat Brain, Mol. Pharmacol., 34, 605–613 (1988) and A. Charalambous et al, 5′-azido Δ^8 THC: A Novel Photoaffinity Label for the Cannabinoid Receptor, J. Med. Chem., 35, 3076–3079 (1992) with the following changes. The above articles are incorporated by reference herein.
Membranes, previously frozen at −80° C., were thawed on ice. To the stirred suspension was added three volumes of TME (25 mM Tris-HCl buffer, 5 mM MgCl2 and 1 mM EDTA) at a pH 7.4. The suspension was incubated at 4° C. for 30 min. At the end of the incubation, the membranes were pelleted and washed three times with TME.
(§2) The treated membranes were subsequently used in the binding assay described below. Approximately 30 μg of membranes were incubated in silanized 96-well microtiter plate with TME containing 0.1% essentially fatty acid-free bovine serum albumin (BSA), 0.8 nM [^3H] CP-55,940, and various concentrations of test materials at […] for 1 hour. The samples were filtered using Packard Filtermate 196 and Whatman GF/C filterplates and washed with wash buffer (TME) containing 0.5% BSA. Radioactivity was detected using MicroScint 20 scintillation cocktail added directly to the dried filterplates, and the filterplates were counted using a Packard Instruments Top-Count. Nonspecific binding was assessed using 100 nM CP-55,940. Data collected from three independent experiments performed with duplicate determinations was normalized between 100% and 0% specific binding for [^3H] CP-55,940, determined using buffer and 100 nM CP-55,940. The normalized data was analyzed using a 4-parameter nonlinear logistic equation to yield IC50 values. Data from at least two independent experiments performed in duplicate was used to calculate IC50 values which were converted to Ki values using the assumptions of Cheng et al, Relationship Between the Inhibition Constant (Ki) and the concentration of Inhibitor which causes 50% Inhibition (IC50) of an Enzymatic Reaction, Biochem. Pharmacol., 22, 3099–3102, (1973), which is incorporated by reference herein.

CB2 receptor = target: T2, CB2 receptor (Mus musculus, UniProt P47936); assay: CB2 receptor binding, [3H] CP-55,940 displacement, mouse spleen membranes; settings: for Ki: mouse spleen membranes, [3H] CP-55,940, read-out: Kl CB2 (converted); for selectivity for the CB2 receptor: binding selectivity CB2 versus CB1, from the results in the TABLES
T2 construct: membranes were prepared from frozen mouse spleen; from tissue; host or cells: mouse spleen
T2 sequence (P47936 whole entry): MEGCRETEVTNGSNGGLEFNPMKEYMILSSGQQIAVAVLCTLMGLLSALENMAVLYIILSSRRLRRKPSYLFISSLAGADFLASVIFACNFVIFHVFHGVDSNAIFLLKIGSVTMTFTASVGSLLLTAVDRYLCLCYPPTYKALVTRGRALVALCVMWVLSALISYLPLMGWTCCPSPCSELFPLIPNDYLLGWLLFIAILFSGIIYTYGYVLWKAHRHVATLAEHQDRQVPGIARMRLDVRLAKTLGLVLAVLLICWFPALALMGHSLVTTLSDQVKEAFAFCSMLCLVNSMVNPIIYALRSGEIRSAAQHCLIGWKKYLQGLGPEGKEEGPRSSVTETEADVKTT
Procedure: as §1, §2
For the CB2 receptor binding studies, membranes were prepared from frozen mouse spleen essentially according to the procedure of P. R. Dodd et al, A Rapid Method for Preparing Synaptosomes: Comparison with Alternative Procedures, Brain Res., 226, 107–118 (1981) which is incorporated by reference herein. Silanized centrifuge tubes were used throughout to minimize receptor loss due to adsorption. The CB2 binding assay was conducted in the same manner as for the CB1 binding assay. The binding affinities (Ki) were also expressed in nanomoles (nM).

SMILES | Ki (CB1 receptor; TABLE 2) | Ki (CB2 receptor; TABLE 2) | other results
Cc1c(C(=O)c2ccccc2)c2ccc(N=[N+]=[N-])cc2n1CC1CCCCN1C (racemic) [AM671] | – | – | Ki (CB1 receptor; TABLE 1, racemic samples): 155 nM; Ki (CB2 receptor; TABLE 1, racemic samples): 59.1 nM
CC(=O)OCCCn1cc(C(=O)c2cccc3ccccc23)c2ccccc21 [AM1284] | 127 nM | 103 nM | –
O=C(c1cccc2ccccc12)c1cn(CCCCCI)c2ccccc12 [AM2203] | 7.8 nM | 45.8 nM | –
O=C(c1cccc2ccccc12)c1cn(CCCCN=C=S)c2ccccc12 [AM1291] | 2960 nM | 1800 nM | –
O=C(c1cccc2ccccc12)c1cn(CCCCI)c2ccccc12 [AM1288] | 1.3 nM | 10.5 nM | selectivity for the CB1 receptor (CB1 receptor): high selectivity for the CB1 receptor
CC(=O)OCCCCn1cc(C(=O)c2cccc3ccccc23)c2ccccc21 [AM1282] | 133 nM | 101 nM | –
CN1CCCCC1Cn1cc(C(=O)c2ccc([N+](=O)[O-])c3ccccc23)c2ccccc21 (stereo not drawn) [AM1299] | – | – | Ki (CB1 receptor; TABLE 1, racemic samples): 12.4 nM; Ki (CB2 receptor; TABLE 1, racemic samples): 13.5 nM
CN1CCCCC1Cn1cc(C(=O)C23CC4CC(CC(C4)C2)C3)c2ccccc21 (stereo not drawn) [AM1248] | – | – | Ki (CB1 receptor; TABLE 1, racemic samples): 100 nM; Ki (CB2 receptor; TABLE 1, racemic samples): 332 nM
O=C(c1cccc2ccccc12)c1cn(CCCCCO)c2cc([N+](=O)[O-])ccc12 [AM1234] | 77.6 nM | 197 nM | –
CCCCCn1cc(C(=O)c2cc(N)ccc2I)c2ccccc21 [AM1203] | 63.6 nM | 88.9 nM | –
CN1CCCCC1Cn1cc(C(=O)c2cccc3ccccc23)c2ccccc21 (stereo not drawn) [AM1220] | – | – | Ki (CB1 receptor; TABLE 1, racemic samples): 3.88 nM; Ki (CB2 receptor; TABLE 1, racemic samples): 73.4 nM
N#CCCCCn1cc(C(=O)c2cccc3ccccc23)c2ccc([N+](=O)[O-])cc21 [AM2231] | 4.9 nM | 23.9 nM | –
CC(=O)OCCCCCn1c(C)c(C(=O)c2ccccc2I)c2ccccc21 [AM689] | 2280 nM | 1020 nM | –
Cc1c(C(=O)c2ccccc2I)c2ccc(N=C=S)cc2n1CC1CCCCN1C (racemic) [AM1216] | – | – | Ki (CB1 receptor; TABLE 1, racemic samples): 210 nM; Ki (CB2 receptor; TABLE 1, racemic samples): 25.2 nM
CCCCCn1c(C)c(C(=O)c2ccccc2I)c2ccccc21 [AM669] | 47.2 nM | 38.6 nM | –
O=C(c1cccc2ccccc12)c1cn(CCCN=C=S)c2ccccc12 [AM1294] | 283 nM | 237 nM | –
CC(=O)OCCCCCn1cc(C(=O)c2cccc3ccccc23)c2ccc(N)cc21 [AM1236] | 1130 nM | 559 nM | –
O=C(c1cccc2ccccc12)c1cn(CCCCCF)c2ccccc12 [AM2201] | 1 nM | 2.6 nM | –
Cc1ccc(S(=O)(=O)OCCCCCn2c(C)c(C(=O)c3ccccc3I)c3ccccc32)cc1 [AM2227] | 1020 nM | 2970 nM | –
CCCCCn1cc(C(=O)c2ccccc2I)c2ccccc21 [AM679] | 13.5 nM | 49.5 nM | –
CCCCCCCn1c(C)c(C(=O)c2ccccc2I)c2ccccc21 [AM672] | 1600 nM | 1510 nM | –
Cc1c(C(=O)c2ccccc2I)c2ccc(N)cc2n1CC1CCCCN1C (racemic) [AM665] | – | – | Ki (CB1 receptor; TABLE 1, racemic samples): 206 nM; Ki (CB2 receptor; TABLE 1, racemic samples): 20.3 nM
CC(=O)OCCCCCn1cc(C(=O)c2ccccc2I)c2ccccc21 [AM692] | 2660 nM | 1520 nM | –
Nc1ccc2c(C(=O)c3cccc4ccccc34)cn(CCCCCO)c2c1 [AM1237] | 837 nM | 244 nM | selectivity for the CB2 receptor (CB2 receptor): high selectivity for the CB2 receptor
O=C(c1cccc2ccccc12)c1cn(CCCCF)c2ccccc12 [AM1295] | 2.5 nM | 30.7 nM | selectivity for the CB1 receptor (CB1 receptor): high selectivity for the CB1 receptor
CN1CCCCC1Cn1cc(C(=O)c2ccc(I)c3ccccc23)c2ccc(N=[N+]=[N-])cc21 (racemic) [AM2212] | – | – | Ki (CB1 receptor; TABLE 1, racemic samples): 31 nM; Ki (CB2 receptor; TABLE 1, racemic samples): 2.9 nM
O=C(c1cccc2ccccc12)c1cn(CCCCCF)c2cc(I)ccc12 [Am1230] | 1.1 nM | 2.4 nM | –

SMILES | Ki (CB1 receptor; TABLE 2) | Ki (CB2 receptor; TABLE 2) | other results
CN1CCCCC1Cn1cc(C(=O)c2cccc3ccccc23)c2ccc(N=C=S)cc21 (racemic) [AM1217] | – | – | Ki (CB1 receptor; TABLE 1, racemic samples): 255 nM; Ki (CB2 receptor; TABLE 1, racemic samples): 81.5 nM
CC(=O)OCCCCCn1cc(C(=O)c2cccc3ccccc23)c2ccc([N+](=O)[O-])cc21 [AM1233] | 142 nM | 154 nM | –
O=C(c1ccc([N+](=O)[O-])c2ccccc12)c1cn(CCCCI)c2ccccc12 [AM2210] | 1.8 nM | 11.3 nM | –
CN1CCCCC1Cn1cc(C(=O)c2cccc3ccccc23)c2ccc([N+](=O)[O-])cc21 (racemic) [AM1218] | – | – | Ki (CB1 receptor; TABLE 1, racemic samples): 11.2 nM; Ki (CB2 receptor; TABLE 1, racemic samples): 3.98 nM
O=C(c1ccccc1I)c1cn(CCCCCF)c2ccccc12 [AM694] | 0.08 nM | 1.44 nM | selectivity for the CB1 receptor (CB1 receptor): high selectivity for the CB1 receptor
Cc1c(C(=O)c2ccccc2)c2ccc(N=C=S)cc2n1CC1CCCCN1C (racemic) [AM684] | – | – | Ki (CB1 receptor; TABLE 1, racemic samples): 181 nM; Ki (CB2 receptor; TABLE 1, racemic samples): 44.8 nM
O=C(c1cccc2ccccc12)c1cn(CCCCO)c2ccccc12 [AM1283] | 117 nM | 196 nM | –
Cc1c(C(=O)c2ccccc2I)c2ccccc2n1CCCCCO [AM690] | 4850 nM | 1970 nM | –
Cc1ccc(S(=O)(=O)OCCCCCn2cc(C(=O)c3ccccc3I)c3ccccc32)cc1 [AM697] | 1310 nM | 1120 nM | –
N#CCCCCn1cc(C(=O)c2cccc3ccccc23)c2ccccc21 [AM2232] | 0.28 nM | 1.48 nM | –
CN1CCCCC1Cn1cc(C(=O)c2ccc(N=C=S)c3ccccc23)c2ccc(N=C=S)cc21 (racemic) [AM2215] | – | – | Ki (CB1 receptor; TABLE 1, racemic samples): 235 nM; Ki (CB2 receptor; TABLE 1, racemic samples): 99.6 nM
O=C(c1cccc2ccccc12)c1cn(CCCCCO)c2cc(I)ccc12 [AM1238] | 3.1 nM | 17.3 nM | –
Cc1c(C(=O)c2cccc3ccccc23)c2ccc(N)cc2n1CC1CCCCN1C (racemic) [AM1225] | – | – | Ki (CB1 receptor; TABLE 1, racemic samples): 440 nM; Ki (CB2 receptor; TABLE 1, racemic samples): 38.5 nM
CN1CCCCC1Cn1cc(C(=O)c2cc(N=C=S)ccc2I)c2ccc(N=C=S)cc21 (racemic) [AM2223] | – | – | Ki (CB1 receptor; TABLE 1, racemic samples): 64.8 nM; Ki (CB2 receptor; TABLE 1, racemic samples): 29.9 nM
CCCCCn1cc(C(=O)c2cc([N+](=O)[O-])ccc2I)c2ccccc21 [AM1202] | 98.9 nM | 22.9 nM | –
CCCCCn1cc(C(=O)c2cc(N=C=S)ccc2I)c2ccccc21 [AM1204] | 5660 nM | 3350 nM | –
O=C(c1ccccc1I)c1cn(CCCCCI)c2ccccc12 [AM698] | 136 nM | 315 nM | –
O=C(c1cccc2ccccc12)c1cn(CCCCCN=C=S)c2ccccc12 [AM2204] | 7.5 nM | 24.4 nM | –
CN1CCCCC1Cn1cc(C(=O)c2cc(N=[N+]=[N-])ccc2I)c2ccc(N=[N+]=[N-])cc21 (racemic) [AM2209] | – | – | Ki (CB1 receptor; TABLE 1, racemic samples): 48.8 nM; Ki (CB2 receptor; TABLE 1, racemic samples): 41.8 nM
O=C(c1ccc(N=C=S)c2ccccc12)c1cn(CCCCI)c2ccccc12 [AM2216] | 42.4 nM | 213 nM | –
Cc1ccc(S(=O)(=O)OCCCn2cc(C(=O)c3cccc4ccccc34)c3ccccc32)cc1 [AM1289] | 360 nM | 78.6 nM | selectivity for the CB2 receptor (CB2 receptor): high selectivity for the CB2 receptor
Cc1ccc(S(=O)(=O)OCCCCn2cc(C(=O)c3cccc4ccccc34)c3ccccc32)cc1 [AM1286] | 1510 nM | 1290 nM | –
Cc1c(C(=O)c2cccc3ccccc23)c2ccc([N+](=O)[O-])cc2n1CC1CCCCN1C (stereo not drawn) [AM1221] | – | – | Ki (CB1 receptor; TABLE 1, racemic samples): 52.3 nM; Ki (CB2 receptor; TABLE 1, racemic samples): 0.28 nM
Cc1c(C(=O)c2ccccc2I)c2ccccc2n1CCCCCF [AM2225] | 5.97 nM | 3.8 nM | –
CCCCCn1cc(C(=O)c2cc(I)ccc2I)c2ccccc21 [AM1206] | 105 nM | 150 nM | –
CCCCCCn1c(C)c(C(=O)c2ccccc2I)c2ccccc21 [AM682] | 332 nM | 693 nM | –
